Assay results published in article PMC6356579, “Mass Spectrometry Analysis and Biological Characterization of the Predatory Ant Odontomachus monticola Venom and Venom Sac Components” (Toxins, 2019).
Where two headings read alike, the source gives them in different places. Marks after values point to notes of the source that are not given here. Bridge positions count the residues as written; N and C are the ends. Ends that are not written are not given here. I, II: the chains in the order shown.

Assays:
[1] = tested on: E. coli (NBRC 14237); type: cell-based, Escherichia coli; details: minimum inhibitory concentration; synthetic peptides; method as described previously [6]
Excerpt: (§1) Pilosulin-like peptides 1–6 were chemically synthesized by the 9-fluorenylmethyloxycarbonyl (Fmoc) method, and we examined their biological activities (Table 3). We synthesized homodimeric pilosulin-like peptide 4, which was linked by a single disulfide bond. […] These activities were higher than those of magainin, a well-known Xenopus laevis antimicrobial peptide. […] The cysteine residue of pilosulin-like peptide 4 may be important for antifungal activity.
(§2) Pilosulin-like peptides 1–6 were prepared using Fmoc chemistry by GenScript (Nanjing, Jiangsu, China). The peptides were purified by RP-HPLC with a preparative C18 column. The purity and molecular weight of the final peptides were verified by HPLC and MS. Antimicrobial, hemolytic, and histamine-releasing activities were measured as described previously.

[2] = tested on: S. aureus (NBRC 12732); type: cell-based, Staphylococcus aureus; details: minimum inhibitory concentration; synthetic peptides; method as described previously [6]
Excerpt: as §1, §2

[3] = tested on: S. cerevisiae (NBRC 10217); type: cell-based, Saccharomyces cerevisiae; details: minimum inhibitory concentration; synthetic peptides; method as described previously [6]
Excerpt: as §1, §2

[4] = Hemolytic activity; type: cell-based; details: for Hemolytic Activity (%) at 10 μM: peptide at 10 μM; for Hemolytic Activity (%) at 50 μM: peptide at 50 μM
Method: as §2

[5] = tested on: rat mast cells; test: Histamine-releasing activity; type: cell-based; details: peptide at 10 μM
Method: as §2

[6] = peptide at 10 μM; ref Shigeri et al. [24]; cited from earlier work
Method: Table 3 Biological properties of O. monticola pilosulin-like peptides. | column: Hemolytic Activity (%) / at 10 μM

[7] = tested on: rat mast cells; details: peptide at 10 μM; ref Shigeri et al. [24]; cited from earlier work
Method: Table 3 Biological properties of O. monticola pilosulin-like peptides. | column: Histamine-Releasing Activity at 10 μM (%)

In the case of GILDWGKKVMDWIKDKM-NH2 [PLP1], the “MIC, E. coli (NBRC 14237)” value [1] is reported as less than 3.1 µM, the “MIC, S. aureus (NBRC 12732)” value [2] is reported as less than 3.1 µM and the “MIC, S. cerevisiae (NBRC 10217)” value [3] is reported as less than 50 µM. The “Hemolytic Activity (%) at 10 μM” value [4] was “Negative” and the “Hemolytic Activity (%) at 50 μM” value [4] was “Negative”.

With “GWGSIFKTVGKMIAKAAVKAAPEAISAMASQNE [PLP2]” the “MIC, E. coli (NBRC 14237)” value [1] was less than 6.2 µM, the “MIC, S. aureus (NBRC 12732)” value [2] was less than 6.2 µM and the “MIC, S. cerevisiae (NBRC 10217)” value [3] was less than 50 µM. For the same substance, the “Hemolytic Activity (%) at 10 μM” value [4] was “Negative” and the “Hemolytic Activity (%) at 50 μM” value [4] was 10.4%.

In the case of “I: GVKELFGKAWGLVKKHLPKACGLLGYVKQ-OH / II: GVKELFGKAWGLVKKHLPKACGLLGYVKQ-OH (disulfide I:21-II:21) [PLP4]”, the “MIC, E. coli (NBRC 14237)” value [1] is reported as less than 3.1 µM, the “MIC, S. aureus (NBRC 12732)” value [2] is reported as less than 3.1 µM and the “MIC, S. cerevisiae (NBRC 10217)” value [3] is reported as less than 3.1 µM. The “Hemolytic Activity (%) at 10 μM” value [4] was “Negative”, the “Hemolytic Activity (%) at 50 μM” value [4] was 10.5% and the “Histamine-Releasing Activity at 10 μM (%)” value [5] was 66.4%. The “Histamine-Releasing Activity at 10 μM (%)” value ([5]; listed as Pilosulin-like peptide 4) was “comparable to that of melittin”.

With “IKGKKIMKNMGKAMKIAGKVAKAMAPIVVPLIVSAA-NH2 [PLP6]” the “MIC, E. coli (NBRC 14237)” value [1] was less than 3.1 µM, the “MIC, S. aureus (NBRC 12732)” value [2] was less than 3.1 µM and the “Hemolytic Activity (%) at 10 μM” value [4] was “Negative”. For the same substance, the “Hemolytic Activity (%) at 50 μM” value [4] was “Negative”.

For IWGALLGTLIPAITSAIQ-NH2 [PLP5], the “MIC, E. coli (NBRC 14237)” value [1] was less than 50 µM, the “Hemolytic Activity (%) at 10 μM” value [4] was 6.9% and the “Hemolytic Activity (%) at 50 μM” value [4] was 94.8%.

With “KIKWGKIFKKGGKLIGKTALEAAANAAASEAISAMASQNE [PLP3]” the “MIC, E. coli (NBRC 14237)” value [1] was less than 3.1 µM, the “MIC, S. aureus (NBRC 12732)” value [2] was less than 25 µM and the “MIC, S. cerevisiae (NBRC 10217)” value [3] was less than 50 µM. The “Hemolytic Activity (%) at 10 μM” value [4] was “Negative” and the “Hemolytic Activity (%) at 50 μM” value [4] was “Negative”.

For Magainin [reference compound], the “MIC, E. coli (NBRC 14237)” value [1] was less than 12.5 µM, the “MIC, S. aureus (NBRC 12732)” value [2] was less than 25 µM and the “MIC, S. cerevisiae (NBRC 10217)” value [3] was “Negative”.

For Mastoparan, the “Hemolytic Activity (%) at 10 μM” value [6] is given as 13.5 ^b % and the “Histamine-Releasing Activity at 10 μM (%)” value [7] is given as 31.1 ^b %.

In the case of Melittin: a honey bee hemolytic peptide, the “Hemolytic Activity (%) at 10 μM” value [6] is listed as 100.0 ^b % and the “Histamine-Releasing Activity at 10 μM (%)” value [7] is listed as 64.3 ^b %.
